{
  "source": "patent US9637485B2",
  "about": "“6,7-dihydrobenzo[a]quinolizin-2-one derivatives for the treatment and prophylaxis of hepatitis B virus infection” (Hoffmann-La Roche Inc., priority 2014, dated 2017)",
  "data": [
    {"tested_on": "HBsAg", "test": "HBsAg assay (CLIA of secreted HBsAg in HepG2.2.15 culture supernatant)", "assay_type": "cell-based, HBV", "settings": "Hepatitis B virus, HepG2.2.15, read-out: IC50 (HBsAg secretion reduced by 50% compared to the no drug control), HepG2.2.15 cells, culture supernatant, HBsAg CLIA", "experimental": "(§1) HepG2.2.15 cells (Acs et al. Proc Natl Acad Sci USA, 84, (1987), 4641-4), a constitutively HBV-expressing cell line were cultured in DMEM+Glutamax-I medium (Invitrogen, Carlsbad, Calif., USA, Catalog number: 11320082), supplemented with 10% fetal bovine serum (Invitrogen, Catalog number: 10099141) and G418 (Invitrogen, Catalog number: 10131027) at a final concentration of 200 mg/L and maintained in 5% CO2 at 37° C.\n(§2) HepG2.2.15 cells were seeded in duplicate into white, 96-well plates at 1.5×10^4 cells/well. The cells were treated with a three-fold serial dilution series of the compounds in DMSO. The final DMSO concentration in all wells was 1% and DMSO was used as no drug control.\n(§3) The HBsAg chemiluminescence immunoassay (CLIA) kit (Autobio Diagnostics Co., Zhengzhou, China, Catalog number: CL0310-2) was used to measure the levels of secreted HBV antigens semi-quantitatively. For the detection 50 μL/well culture supernatant was used and HBsAg was quantified using HBsAg chemiluminescence immunoassay (CLIA) kit (Autobio Diagnostics Co., Zhengzhou, China, Catalog number: CL0310-2), 50 μl of the supernatant was transferred to the CLIA assay plate and 50 μL of enzyme conjugate reagent was added into each well. The plates were sealed and gently agitated for 1 hour at room temperature. The supernatant-enzyme-mixture was discarded and wells were washed 6 times with 300 μL of PBS. The residual liquid was removed by plating the CLIA plate right side down on absorbent tissue paper. 25 μL of substrates A and B were added to each well. Luminance was measured using a luminometer (Mithras LB 940 Multimode Microplate Reader) after 10 minutes incubation. Dose-response curves were generated and the IC50 value was extrapolated by using the E-WorkBook Suite (ID Business Solutions Ltd., Guildford, UK). The IC50 was defined as the compound concentration (or conditioned media log dilution) at which HBsAg secretion was reduced by 50% compared to the no drug control.", "units": {"IC50": "µM"}, "values": [
      {"smiles": "COCCCOc1cc2c(cc1OC)-c1cc(=O)c(C(=O)O)cn1C(C(C)(C)CO)C2", "note": "(racemic) [Example 24, 6-(2-Hydroxy-1,1-dimethyl-ethyl)-10-methoxy-9-(3-methoxypropoxy)-2-oxo-6,7-dihydrobenzo[a]quinolizine-3-carboxylic acid]", "IC50": 0.005},
      {"smiles": "COCCCOc1cc2c(cc1OC)-c1cc(=O)c(C(=O)O)cn1C(C(C)(C)COC)C2", "note": "(racemic) [Example 27, 10-Methoxy-6-(2-methoxy-1,1-dimethyl-ethyl)-9-(3-methoxypropoxy)-2-oxo-6,7-dihydrobenzo[a]quinolizine-3-carboxylic acid]", "IC50": 0.005},
      {"smiles": "COCCCOc1cc2c(cc1Cl)-c1cc(=O)c(C(=O)O)cn1C(C(C)(C)COC)C2", "note": "(racemic) [Example 30, 10-Chloro-6-(2-methoxy-1,1-dimethyl-ethyl)-9-(3-methoxypropoxy)-2-oxo-6,7-dihydrobenzo[a]quinolizine-3-carboxylic acid]", "IC50": 0.004},
      {"smiles": "COCC(C)(C)C1Cc2cc(OCc3ccccc3)c(OC)cc2-c2cc(=O)c(C(=O)O)cn21", "note": "(centres unmarked) [Example 1, 9-Benzyloxy-10-methoxy-6-(2-methoxy-1,1-dimethyl-ethyl)-2-oxo-6,7-dihydrobenzo[a]quinolizine-3-carboxylic acid]", "IC50": 0.007},
      {"smiles": "COCC(C)(C)C1Cc2cc(OC)c(OC)cc2-c2cc(=O)c(C(=O)O)cn21", "note": "(centres unmarked) [Example 2, 9,10-Dimethoxy-6-(2-methoxy-1,1-dimethyl-ethyl)-2-oxo-6,7-dihydrobenzo[a]quinolizine-3-carboxylic acid]", "IC50": 0.034},
      {"smiles": "COCC(C)(C)C1Cc2cc(OCC(F)(F)F)c(OC)cc2-c2cc(=O)c(C(=O)O)cn21", "note": "(centres unmarked) [Example 3, 10-Methoxy-6-(2-methoxy-1,1-dimethyl-ethyl)-2-oxo-9-(2,2,2-trifluoroethoxy)-6,7-dihydrobenzo[a]quinolizine-3-carboxylic acid]", "IC50": 0.009},
      {"smiles": "COCC(C)(C)C1Cc2cc(OCCCN3CCOCC3)c(OC)cc2-c2cc(=O)c(C(=O)O)cn21", "note": "(centres unmarked) [Example 4, 10-Methoxy-6-(2-methoxy-1,1-dimethyl-ethyl)-9-(3-morpholinopropoxy)-2-oxo-6,7-dihydrobenzo[a]quinolizine-3-carboxylic acid]", "IC50": 0.014},
      {"smiles": "COCC(C)(C)C1Cc2cc(OCCCCCCO)c(OC)cc2-c2cc(=O)c(C(=O)O)cn21", "note": "(centres unmarked) [Example 5, 9-(6-Hydroxyhexoxy)-10-methoxy-6-(2-methoxy-1,1-dimethyl-ethyl)-2-oxo-6,7-dihydrobenzo[a]quinolizine-3-carboxylic acid]", "IC50": 0.006},
      {"smiles": "COCC(C)(C)C1Cc2cc(OCCCO)c(OC)cc2-c2cc(=O)c(C(=O)O)cn21", "note": "(centres unmarked) [Example 6, 9-(3-Hydroxypropoxy)-10-methoxy-6-(2-methoxy-1,1-dimethyl-ethyl)-2-oxo-6,7-dihydrobenzo[a]quinolizine-3-carboxylic acid]", "IC50": 0.022},
      {"smiles": "COCC(C)(C)C1Cc2cc(OCC(C)(C)CO)c(OC)cc2-c2cc(=O)c(C(=O)O)cn21", "note": "(centres unmarked) [Example 7, 9-(3-Hydroxy-2,2-dimethyl-propoxy)-10-methoxy-6-(2-methoxy-1,1-dimethyl-ethyl)-2-oxo-6,7-dihydrobenzo[a]quinolizine-3-carboxylic acid]", "IC50": 0.009},
      {"smiles": "CCOCCOc1cc2c(cc1OC)-c1cc(=O)c(C(=O)O)cn1C(C(C)(C)COC)C2", "note": "(centres unmarked) [Example 8, 9-(2-Ethoxyethoxy)-10-methoxy-6-(2-methoxy-1,1-dimethyl-ethyl)-2-oxo-6,7-dihydrobenzo[a]quinolizine-3-carboxylic acid]", "IC50": 0.012},
      {"smiles": "COCC(C)(C)C1Cc2cc(OCC3CC3)c(OC)cc2-c2cc(=O)c(C(=O)O)cn21", "note": "(centres unmarked) [Example 9, 9-(Cyclopropylmethoxy)-10-methoxy-6-(2-methoxy-1,1-dimethyl-ethyl)-2-oxo-6,7-dihydrobenzo[a]quinolizine-3-carboxylic acid]", "IC50": 0.004},
      {"smiles": "COCC(C)(C)C1Cc2cc(OCCCSC)c(OC)cc2-c2cc(=O)c(C(=O)O)cn21", "note": "(centres unmarked) [Example 10, 10-Methoxy-6-(2-methoxy-1,1-dimethyl-ethyl)-9-(3-methylsulfanylpropoxy)-2-oxo-6,7-dihydrobenzo[a]quinolizine-3-carboxylic acid]", "IC50": 0.006},
      {"smiles": "COCC(C)(C)C1Cc2cc(OCCCN3CCCC3)c(OC)cc2-c2cc(=O)c(C(=O)O)cn21", "note": "(centres unmarked) [Example 11, 10-Methoxy-6-(2-methoxy-1,1-dimethyl-ethyl)-2-oxo-9-(3-pyrrolidin-1-ylpropoxy)-6,7-dihydrobenzo[a]quinolizine-3-carboxylic acid]", "IC50": 0.519},
      {"smiles": "COCC(C)(C)C1Cc2cc(OCCCN3CCCC3=O)c(OC)cc2-c2cc(=O)c(C(=O)O)cn21", "note": "(centres unmarked) [Example 12, 10-Methoxy-6-(2-methoxy-1,1-dimethyl-ethyl)-2-oxo-9-[3-(2-oxopyrrolidin-1-yl)propoxy]-6,7-dihydrobenzo[a]quinolizine-3-carboxylic acid]", "IC50": 0.19},
      {"smiles": "COCC(C)(C)C1Cc2cc(OCCCN(C)C)c(OC)cc2-c2cc(=O)c(C(=O)O)cn21", "note": "(centres unmarked) [Example 13, 9-[3-(Dimethylamino)propoxy]-10-methoxy-6-(2-methoxy-1,1-dimethyl-ethyl)-2-oxo-6,7-dihydrobenzo[a]quinolizine-3-carboxylic acid]", "IC50": 0.579},
      {"smiles": "COCC(C)(C)C1Cc2cc(OCCCCCCNC(=O)OC(C)(C)C)c(OC)cc2-c2cc(=O)c(C(=O)O)cn21", "note": "(centres unmarked) [Example 14, 9-[6-(tert-Butoxycarbonylamino)hexoxy]-10-methoxy-6-(2-methoxy-1,1-dimethyl-ethyl)-2-oxo-6,7-dihydrobenzo[a]quinolizine-3-carboxylic acid]", "IC50": 0.003},
      {"smiles": "COCC(C)(C)C1Cc2cc(OCCCS(C)(=O)=O)c(OC)cc2-c2cc(=O)c(C(=O)O)cn21", "note": "(centres unmarked) [Example 15, 10-Methoxy-6-(2-methoxy-1,1-dimethyl-ethyl)-9-(3-methylsulfonylpropoxy)-2-oxo-6,7-dihydrobenzo[a]quinolizine-3-carboxylic acid]", "IC50": 0.124},
      {"smiles": "COCC(C)(C)C1Cc2cc(OCCCCCCN)c(OC)cc2-c2cc(=O)c(C(=O)O)cn21", "note": "(centres unmarked) [Example 16, 9-(6-Aminohexoxy)-10-methoxy-6-(2-methoxy-1,1-dimethyl-ethyl)-2-oxo-6,7-dihydrobenzo[a]quinolizine-3-carboxylic acid]", "IC50": 0.068},
      {"smiles": "COCC(C)(C)C1Cc2cc(OCCC3CCCN3C)c(OC)cc2-c2cc(=O)c(C(=O)O)cn21", "note": "(centres unmarked) [Example 17, 10-Methoxy-6-(2-methoxy-1,1-dimethyl-ethyl)-9-[2-(1-methylpyrrolidin-2-yl)ethoxy]-2-oxo-6,7-dihydrobenzo[a]quinolizine-3-carboxylic acid]", "IC50": 0.537}
    ]},
    {"tested_on": "HBsAg", "test": "HBsAg assay (CLIA of secreted HBsAg in HepG2.2.15 culture supernatant)", "assay_type": "cell-based, HBV", "settings": "read-out: IC50 (HBsAg secretion reduced by 50% compared to the no drug control); HepG2.2.15 cells, culture supernatant, HBsAg CLIA", "experimental": "as §1, §2, §3", "units": {"IC50": "µM"}, "values": [
      {"smiles": "COCCCOc1cc2c(cc1OC)-c1cc(=O)c(C(=O)O)cn1[C@H](C(C)(C)O)C2", "note": "(single isomer, unassigned) [Example 21, (+)-6-(1-Hydroxy-1-methyl-ethyl)-10-methoxy-9-(3-methoxypropoxy)-2-oxo-6,7-dihydrobenzo[a]quinolizine-3-carboxylic acid]", "IC50": 0.041},
      {"smiles": "COCCCOc1cc2c(cc1OC)-c1cc(=O)c(C(=O)O)cn1C(C(C)(C)O)C2", "note": "(single isomer, unassigned) [Example 22, (−)-6-(1-hydroxy-1-methyl-ethyl)-10-methoxy-9-(3-methoxypropoxy)-2-oxo-6,7-dihydrobenzo[a]quinolizine-3-carboxylic acid]", "IC50": 4.02},
      {"smiles": "COCCCOc1cc2c(cc1OC)-c1cc(=O)c(C(=O)O)cn1C(C(C)(C)CO)C2", "note": "(single isomer, unassigned) [Example 26, (−)-6-(2-hydroxy-1,1-dimethyl-ethyl)-10-methoxy-9-(3-methoxypropoxy)-2-oxo-6,7-dihydrobenzo[a]quinolizine-3-carboxylic acid]", "IC50": 0.084},
      {"smiles": "COCCCOc1cc2c(cc1OC)-c1cc(=O)c(C(=O)O)cn1[C@H](C(C)(C)COC)C2", "note": "(single isomer, unassigned) [Example 29, (−)-10-methoxy-6-(2-methoxy-1,1-dimethyl-ethyl)-9-(3-methoxypropoxy)-2-oxo-6,7-dihydrobenzo[a]quinolizine-3-carboxylic acid]", "IC50": 0.396},
      {"smiles": "COCCCOc1cc2c(cc1Cl)-c1cc(=O)c(C(=O)O)cn1C(C(C)(C)COC)C2", "note": "(single isomer, unassigned) [Example 31, (+)-10-Chloro-6-(2-methoxy-1,1-dimethyl-ethyl)-9-(3-methoxypropoxy)-2-oxo-6,7-dihydrobenzo[a]quinolizine-3-carboxylic acid]", "IC50": 0.003},
      {"smiles": "COCCCOc1cc2c(cc1Cl)-c1cc(=O)c(C(=O)O)cn1C(C(C)(C)COC)C2", "note": "(single isomer, unassigned) [Example 32, (−)-10-chloro-6-(2-methoxy-1,1-dimethyl-ethyl)-9-(3-methoxypropoxy)-2-oxo-6,7-dihydrobenzo[a]quinolizine-3-carboxylic acid]", "IC50": 8.27}
    ]}
  ]
}
